Literature values in patent US20200254068A1, “METHODS FOR TREATING TRAUMATIC BRAIN INJURY” (LOMA LINDA UNIVERSITY, priority 2017, published 2020).

Conditions: given acutely, goal of reducing cerebral edema

Structure (SMILES)	mortality rate in clinical TBI trials	outcome in clinical TBI trials
C[C@@H]1C[C@H]2[C@@H]3CCC4=CC(=O)C=C[C@]4(C)[C@@]3(F)[C@@H](O)C[C@]2(C)[C@@]1(O)C(=O)CO [dexamethasone]	increase the mortality rate	–
CC(=O)[C@H]1CC[C@H]2[C@@H]3CCC4=CC(=O)CC[C@]4(C)[C@H]3CC[C@]12C [progesterone]	–	unsuccessful
